According to patent US20250042912A1, “NOVEL NON-FLUORINATED QUINOLONE COMPOUND AND USE THEREOF” (priority 2021, published 2025):
≈ marks a conversion by molar mass, not a printed value.

Tests used:
[1] = test system: Propionibacterium acnes ATCC 11827; test: Minimum inhibitory concentration (MIC) assay, Propionibacterium acnes ATCC 11827; type: cell-based; settings: Cutibacterium acnes, ATCC11827; anaerobic culture 35+/-2°C, 48 hours; read with naked eyes
Protocol: On the day of the experiment, the compound in the flask was dissolved in 100% DMSO until the concentration of mother liquor was 0.4 mg/mL. If the mother liquor was not used on the same day, it was stored at −80° C. for future use. The compound mother liquor and standard antibiotics were subjected to 2-fold gradient dilution with corresponding solvents on a 96-microwell plate (V-bottom) to obtain 100× working solutions (Well 1 to Well 7) in sequence. Among them, the concentrations of the compound were 400 μg/mL, 200 μg/mL, 100 μg/mL, 50 μg/mL, 25 μg/mL, 12.5 μg/mL, 6.25 μg/mL, and 3.125 μg/mL. 100% DMSO was used as growth control (Well 8). As such, the compound motherplate was obtained. Two days before the experiment, anaerobic bacteria (Propionibacterium acnes) stored in a cryogenic tube at −80° C. were scribed on an MBA (Brucella Agar+5% (v/v) defibrillated sheep blood+[…] Hemin+1 μg/mLVitamin K1) plate. The anaerobic bacteria were placed in a 35+/−2° C. anaerobic incubator for 42-48 hours of cultivation. On the day of the experiment, the plate was taken out, clones were picked from the plate and suspended in physiological saline. Then, the turbidity of the bacterial suspension (containing 1.0-2.0×10^8 CFU/mL) was adjusted to OD600=0.2 by a turbidity meter. Then, the adjusted bacterial suspension was diluted to an appropriate concentration with the assay culture medium: about 5×10^5 CFU/mL for aerobic bacteria, and about 1×10^6 CFU/mL for anaerobic bacteria. As such, the inoculating solution was obtained. […] Therefore, the final assay concentrations of the compound were 4 μg/mL, 2 μg/mL, 1 μg/mL, 0.5 μg/mL, 0.25 μg/mL, 0.125 μg/mL, 0.06 μg/mL and 0.03 μg/mL. The total volume of each well on the assay plate was 200 μL: containing 1% DMSO, about 5×10^5 CFU/mL of aerobic bacteria and about 1×10^6 CFU/mL of anaerobic bacteria. All assay plates for aerobic bacteria were aerobically cultured at 35+/−2° C. for 16 to 20 hours, and all assay plates for anaerobic bacteria were anaerobically cultured in an anaerobic incubator at 35+/−2° C. for 48 hours. Note: for anaerobic bacteria, both the preparation of bacterial solution in step 2 and the inoculation of bacterial solution in step 3 were operated in an anaerobic workstation.

[2] = test system: acne model mice (Propionibacterium acnes ATCC 6919 injected into the left ear); test: Acne model in mice: auricular thickness, redness and swelling of the left ear; type: in vivo, Balb/C mice
Protocol: Experimental strain: Propionibacterium acnes ATCC 6919 (Beijing Biobw Biotechnology Co., Ltd.) Experimental animals: Balb/C mice (Zhejiang Vital River Laboratory Animal Technology Co., Ltd.) Balb/C mice were grouped and numbered, and adaptively fed for one week. On the day of modeling, Propionibacterium acnes was taken, and OD600 was measured using a microplate reader. BH1 culture medium was diluted to OD600=1 (about 5×10^8 CFU/mL), centrifuged to discard supernatant, and the remaining culture was diluted to 1×10^8 CFU/mL with PBS. Once the molding began, the mice were anesthetized with a small animal anesthesia machine, the air flow and isoflurane content of the anesthesia machine were adjusted, and the mice were placed in an anesthesia induction chamber for anesthesia induction. After there were no obvious signs of activity, the mice were taken out and their toes were clamped with tweezers or hemostatic forceps for toe pinching reaction testing, if there was no retraction pain response, the surgery could be performed. The anesthetized mice were placed on a mice plate and fixed, the air flow or isoflurane content was adjusted to maintain anesthesia (isoflurane anesthesia induction content of 3% to 4%, anesthesia maintenance content of 1% to 2%, and air flow rate of 300 mL/min to 500 mL/min). Blank control group: 20 μL of PBS was intracutaneously injected into the left ear of each mouse. Model group, drug group to be tested: 20 μL suspension of Propionibacterium acnes in PBS was intracutaneously injected into the left ear of each mouse. After the injection of Propionibacterium acnes, the mice in each group were administered according to the methods of administration and dosages described in Table 5 at 4 hours, 20 hours, 28 hours, and 44 hours. […] The drugs to be tested included Compound 6, Compound 7, and Compound 12, all of which were in a form of hydrochloride. In this experiment, Compound 6, Compound 7, and Compound 12 all referred to the corresponding hydrochloride drugs with a solvent of 40% DMSO+60% glycerol, the drugs were added into DMSO, heated to 100° C. in a water bath, and then glycerol was added thereto to obtain a bright yellow viscous solution. Administration area: Propionibacterium acnes was injected into the left ear. Administration time: the drugs were administrated at 4 hours, 20 hours, 28 hours, and 44 hours post-injection of Propionibacterium acnes, a total of 4 times. Balb/C mice were anesthetized with a small animal anesthesia machine and isoflurane in Compound 6 group, Compound 7 group, Compound 12 group, and model group. […] Auricular thickness measurement: after Propionibacterium acnes was injected for 48 hours, the auricular thicknesses of mice were measured with a vernier caliper.

MIC [1]: 0.03 µg/mL (≈ 0.0766 µM)
SMILES: CN(C)c1cc2c(cn1)-c1ccc3c(=O)c(C(=O)O)cn(C4CC4)c3c1COC2 [Compound 6]
redness and swelling on the left ears of mice ([2]; Balb/C mice acne model, macroscopic, after treatment, drugs as hydrochloride, in words): reduced to varying degrees | Auricular thickness (% of Blank) Mean ± SD ([2]; Balb/C mice, left ear, 48 hours after injection of Propionibacterium acnes, 15 μL applied at 4, 20, 28, 44 hours, drugs as hydrochloride): 112.71 ± 17.19 % of Blank | Auricular thickness Mean ± SD ([2]; Balb/C mice, left ear, 48 hours after injection of Propionibacterium acnes, 15 μL applied at 4, 20, 28, 44 hours, drugs as hydrochloride in 40% DMSO+60% glycerol): 0.51 ± 0.08 mm | auricular thicknesses of the left ears of mice after treatment ([2]; compared with acne model group, p<0.05, in words): significantly reduced
